The nature of data set [1]: Acute toxicity in male ICR mouse assessed as effect on behavior at 2000 mg/kg, IG measured after 14 days. The data set is classed as organism-based. As to conditions: in vivo, po, 336 h, time 14 day.
Data set [2] in a line: Acute toxicity in male ICR mouse assessed as effect on pathological damage in lung at 2000 mg/kg, IG measured after 14 days by H and E staining based analysis. It is filed as organism-based. The settings on record: in vivo, po, 336 h, time 14 day.
The target in data set [3] is T1, Cytochrome P450 1A2 (Homo sapiens, UniProt P05177).
T1 sequence (P05177 whole entry): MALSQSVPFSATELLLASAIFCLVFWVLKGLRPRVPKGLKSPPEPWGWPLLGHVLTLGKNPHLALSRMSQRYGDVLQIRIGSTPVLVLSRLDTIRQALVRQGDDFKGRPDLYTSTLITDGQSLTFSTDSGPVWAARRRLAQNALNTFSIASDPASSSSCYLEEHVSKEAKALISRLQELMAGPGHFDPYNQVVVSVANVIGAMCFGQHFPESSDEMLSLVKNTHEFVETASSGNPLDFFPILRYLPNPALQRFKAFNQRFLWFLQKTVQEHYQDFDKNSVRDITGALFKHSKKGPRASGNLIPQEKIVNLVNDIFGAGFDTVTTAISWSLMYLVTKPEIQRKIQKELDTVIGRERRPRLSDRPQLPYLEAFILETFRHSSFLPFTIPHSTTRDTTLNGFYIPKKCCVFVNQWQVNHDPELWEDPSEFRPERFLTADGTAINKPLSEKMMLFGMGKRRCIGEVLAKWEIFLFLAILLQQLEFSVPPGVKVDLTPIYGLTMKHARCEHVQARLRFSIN
The experiment in a line: Inhibition of CYP1A2 in human liver microsomes preincubated for 10 mins followed by NADPH addition and measured after 15 mins by LC/MS/MS analysis.

Data set [4] addresses hERG (Homo sapiens, UniProt Q12809). The experiment in a line: Inhibition of human ERG expressed in CHO cells at holding potential of -80 mV at >40 uM by automated patch clamp electrophysiological method relative to control. The data set is classed as toxicity, cell-based. As to conditions: CHO cells that express hERG.
Data set [5] in a line: Acute toxicity in male ICR mouse assessed as effect on pathological damage in heart at 2000 mg/kg, IG measured after 14 days by H and E staining based analysis. The data set is classed as organism-based. The settings on record: in vivo, po, 336 h, time 14 day.
Data set [6] concerns Human immunodeficiency virus 1. As to the kind of experiment: Antiviral activity against wildtype HIV-1 IIIB infected in human MT4 cells assessed as protection against virus-induced cytopathic effect incubated for 5 days by MTT assay. The data set is classed as functional, organism-based. As to conditions: Human immunodeficiency virus 1, IIIB, MT4, 120 h.
For data set [7], the system named is Human immunodeficiency virus 1. As to the kind of experiment: Antiviral activity against HIV-1 harboring RT Y188L mutant infected in human MT4 cells assessed as protection against virus-induced cytopathic effect incubated for 5 days by MTT assay. It is filed as functional, organism-based. The settings on record: Human immunodeficiency virus 1, MT4, 120 h.

Chain of hERG (Q12809 whole entry): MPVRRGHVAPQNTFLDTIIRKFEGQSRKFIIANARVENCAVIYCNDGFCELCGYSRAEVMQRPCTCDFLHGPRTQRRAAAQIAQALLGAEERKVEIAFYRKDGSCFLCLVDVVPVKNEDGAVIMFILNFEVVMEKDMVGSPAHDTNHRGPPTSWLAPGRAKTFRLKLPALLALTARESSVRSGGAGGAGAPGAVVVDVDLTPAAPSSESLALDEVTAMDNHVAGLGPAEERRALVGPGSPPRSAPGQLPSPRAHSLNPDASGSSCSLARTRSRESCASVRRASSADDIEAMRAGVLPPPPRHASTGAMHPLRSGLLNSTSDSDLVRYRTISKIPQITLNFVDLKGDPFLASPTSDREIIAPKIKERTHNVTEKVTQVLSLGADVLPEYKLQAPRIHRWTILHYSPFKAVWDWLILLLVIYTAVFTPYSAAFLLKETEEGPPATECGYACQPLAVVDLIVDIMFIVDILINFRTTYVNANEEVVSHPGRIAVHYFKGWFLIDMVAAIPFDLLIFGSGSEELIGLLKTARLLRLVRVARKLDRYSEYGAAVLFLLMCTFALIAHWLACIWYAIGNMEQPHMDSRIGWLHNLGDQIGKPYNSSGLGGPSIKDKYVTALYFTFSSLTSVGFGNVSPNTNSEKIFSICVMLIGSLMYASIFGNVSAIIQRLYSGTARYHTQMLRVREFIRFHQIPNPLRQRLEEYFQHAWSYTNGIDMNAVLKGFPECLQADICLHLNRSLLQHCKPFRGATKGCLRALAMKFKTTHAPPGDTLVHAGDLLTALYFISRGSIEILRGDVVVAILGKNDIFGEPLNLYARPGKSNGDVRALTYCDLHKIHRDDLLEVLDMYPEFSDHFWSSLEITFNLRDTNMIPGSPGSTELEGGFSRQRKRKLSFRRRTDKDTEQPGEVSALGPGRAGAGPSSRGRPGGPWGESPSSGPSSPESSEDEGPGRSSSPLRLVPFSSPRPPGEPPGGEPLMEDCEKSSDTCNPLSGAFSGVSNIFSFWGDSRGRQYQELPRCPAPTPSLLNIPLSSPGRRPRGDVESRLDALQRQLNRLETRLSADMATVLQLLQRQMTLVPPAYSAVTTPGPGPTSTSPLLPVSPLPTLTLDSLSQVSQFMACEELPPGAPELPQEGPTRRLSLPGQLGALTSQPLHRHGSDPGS

Turning to `Cc1cc(-c2ccncc2)cc(C)c1Nc1nc(Nc2ccc(C#N)cc2)ncc1-c1cn[nH]c1`, the Activity entry in data set [1], in data set [2] and in data set [5] was “Non-toxic” throughout. In data set [3], this molecule gave an IC50 of over 50 µM. 40 µM produced 31.4% inhibition in data set [4]. The EC50 in data set [6] came out at 5 nM; in data set [7], 13 nM.
